Target: T1, human ALAS2 ΔN (residues 75–587) (Homo sapiens, UniProt P22557)
T1 construct: a truncation without HRM3 (ΔN, residues 75–587); His6-SUMO (N, cleaved yes); made in house; host or cells: Escherichia coli BL21-Codon Plus (DE3)-RIL
T1 sequence (P22557 75-587): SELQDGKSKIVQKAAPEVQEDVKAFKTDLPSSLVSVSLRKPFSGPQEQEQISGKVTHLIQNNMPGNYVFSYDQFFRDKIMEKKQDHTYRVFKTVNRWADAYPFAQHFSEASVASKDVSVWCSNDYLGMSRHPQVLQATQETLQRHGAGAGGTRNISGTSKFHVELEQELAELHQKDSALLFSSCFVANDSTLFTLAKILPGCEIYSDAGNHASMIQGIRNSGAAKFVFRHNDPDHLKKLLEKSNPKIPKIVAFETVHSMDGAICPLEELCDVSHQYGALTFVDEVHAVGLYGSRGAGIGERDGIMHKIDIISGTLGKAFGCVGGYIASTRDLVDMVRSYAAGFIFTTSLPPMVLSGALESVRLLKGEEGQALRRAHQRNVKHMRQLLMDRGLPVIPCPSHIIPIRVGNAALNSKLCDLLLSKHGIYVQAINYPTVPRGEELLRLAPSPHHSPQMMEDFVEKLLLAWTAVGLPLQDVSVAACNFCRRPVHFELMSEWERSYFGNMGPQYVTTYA
Assay: Isothermal titration calorimetry, hemin-protein interaction
Assay type: binding
Settings: ITC, 25 °C
Procedure: Binding curves of the hemin-protein interaction were determined using Nano-ITC instrument (TA instruments) at 25 °C. Hemin was dissolved in 1 M NaOH and autoclaved to prepare a stock solution of 746 μM, ε385nm = 58,440 M^−1 cm^−1. The stock solution was diluted to 1.5 μM in titration buffer containing 25 mM Hepes, pH 7, 150 mM KCl, and 0.5 mM TCEP. Protein samples were dialyzed into the titration buffer and diluted to a final concentration of 40 μM. Fixed volumes of protein were injected at 200-s intervals into the cell containing hemin. An A + B hetero-association model was used to determine the thermodynamic parameters for each variant. Data were integrated and analyzed using NITPIC and SEDPHAT and visualized using GUSSI ([71], [72], [73]).

[1] = 95% confidence interval in brackets

A ΔG of -8.50 kcal/mol, a ΔS of −3.35 kcal/mol K and a Kd [1] of 589 nM were found for ferric chloride heme [hemin] in this work. For the same substance, the ΔH [1] was −1006 [−1432, −810] kcal/mol.
